Measured values: PubChem BioAssay (NCI)
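Five compound concentrations were applied to cells in 96-well plates for 48 hours; endpoints were derived by simple linear interpolation of the resulting dose-response curve. Here, GI50 denotes the concentration required for 50% inhibition of growth. The concentration for full growth arrest is given as TGI.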

How the values were obtained:
Assay in all cases: NCI anticancer screen, dose series, 48 h
DLD-1 colon = test system: DLD-1 colon
EKVX NSCLC = test system: EKVX NSCLC
HCC-2998 colon = test system: HCC-2998 colon
KM20L2 colon = test system: KM20L2 colon
LOX IMVI melanoma = test system: LOX IMVI melanoma
NCI-H522 lung = test system: NCI-H522 lung
RXF 393 renal = test system: RXF 393 renal
SF-268 CNS = test system: SF-268 CNS
SK-MEL-2 melanoma = test system: SK-MEL-2 melanoma
SNB-75 CNS = test system: SNB-75 CNS

SMILES: C/C=C/C=C/CCCCCCCCCCCCC[C@]1(OC)C=CC(CC(=O)OC)OO1 (some centres not stated)
- GI50 (DLD-1 colon): 20.2 µM
- TGI (DLD-1 colon): 41.9 µM
- GI50 (EKVX NSCLC): 26.3 µM
- TGI (EKVX NSCLC): 57.6 µM
- GI50 (HCC-2998 colon): 24.3 µM
- TGI (HCC-2998 colon): 47.9 µM
- GI50 (KM20L2 colon): 23.9 µM
- TGI (KM20L2 colon): 51.1 µM
- GI50 (LOX IMVI melanoma): 19.3 µM
- TGI (LOX IMVI melanoma): 37.1 µM
- GI50 (NCI-H522 lung): 3.8 µM
- TGI (NCI-H522 lung): 16.6 µM
- GI50 (RXF 393 renal): 16.5 µM
- TGI (RXF 393 renal): 31 µM
- TGI (SF-268 CNS): 46.4 µM
- TGI (SK-MEL-2 melanoma): 69.5 µM
- TGI (SNB-75 CNS): 31.2 µM

SMILES: COc1cc(/C=C2\NC(=S)C3Cc4c(OC)c(C)c(OC)c(OC)c4C2N3C)c(OC)c(C)c1OC (configuration not stated)
- TGI (DLD-1 colon): > 100 µM
- TGI (EKVX NSCLC): > 100 µM
- TGI (HCC-2998 colon): > 100 µM
- TGI (KM20L2 colon): > 100 µM
- TGI (LOX IMVI melanoma): > 100 µM
- TGI (NCI-H522 lung): 97.9 µM
- TGI (RXF 393 renal): 67.6 µM
- TGI (SF-268 CNS): > 100 µM
- TGI (SK-MEL-2 melanoma): > 100 µM
- TGI (SNB-75 CNS): > 100 µM

SMILES: O=C1c2ccccc2C(=O)c2sc(Nc3ccc(Cl)cc3)nc21
- TGI (DLD-1 colon): 3.41 µM
- TGI (EKVX NSCLC): 17.9 µM
- TGI (HCC-2998 colon): 7.43 µM
- TGI (KM20L2 colon): 33.9 µM
- TGI (LOX IMVI melanoma): 2.91 µM
- TGI (NCI-H522 lung): 3.28 µM
- TGI (RXF 393 renal): 3.65 µM
- TGI (SF-268 CNS): 5.52 µM
- TGI (SK-MEL-2 melanoma): 8.94 µM
- TGI (SNB-75 CNS): 12.7 µM
